Source: ChEMBL document CHEMBL1141804, “Cytotoxic sesquiterpene lactones from Vernonia pachyclada from the Madagascar rainforest” (J Nat Prod, 2005)
*1 amine or outer side, *2 acyl side, *3 side chain or, on linkers, in order; H or OH if unused. Where a SMILES comes first, the peptide text is derived from it. Bridges are numbered along the chain shown (N, C = ends). Roman numbers before positions name the chains, in order. [ ]: non-standard residue; d: D form. Actinocin(1to9) = Cc1c2oc3c(C)ccc(C(=O)[*:2])c3nc-2c(C(=O)[*:1])c(N)c1=O; NMeV = CN[C@H](C(=O)O)C(C)C; Sar = CNCC(=O)O

Test system: A2780
Experiment: Cytotoxicity against human A2780 cells
Type: functional, cell-based

`C=C(C)C(=O)O[C@H]1C[C@H](C)[C@@H](OC(C)=O)CC[C@@]2(C)O[C@@H]2[C@H]2OC(=O)C(COC(C)=O)=C12` [GLAUCOLIDE K] was tested. Which IC50 did it give?
The IC50 was 5.8 µM.

For `Cc1c2oc3c(C)ccc(C(=O)N[C@@H]4C(=O)N[C@H](C(C)C)C(=O)N5CCC[C@H]5C(=O)N(C)CC(=O)N(C)[C@@H](C(C)C)C(=O)O[C@@H]4C)c3nc-2c(C(=O)N[C@@H]2C(=O)N[C@H](C(C)C)C(=O)N3CCC[C@H]3C(=O)N(C)CC(=O)N(C)[C@@H](C(C)C)C(=O)O[C@@H]2C)c(N)c1=O` [DACTINOMYCIN] (I: T[dV]P[Sar][NMeV] / II: T[dV]P[Sar][NMeV]; ester I:1-I:C, II:1-II:C; linker I:N-II:N via Actinocin(1to9)), which IC50 is on record?
Its IC50 is 0.0008 µM.

How did the IC50 turn out when `C=C(C)C(=O)O[C@H]1C[C@H](C)[C@@H](OC(C)=O)CC[C@@]2(C)O[C@@H]2[C@H]2OC(=O)C(CO)=C12` [GLAUCOLIDE L] was run?
Its IC50 is 24.5 µM.

`C=C(C)C(=O)O[C@H]1C[C@H](C)[C@@H](OC(C)=O)CC[C@@](C)(O)/C=C2/OC(=O)C(COC(C)=O)=C21` [GLAUCOLIDE M] was tested. Which IC50 did it give?
The IC50 was 3.3 µM.
